Assay results published in the supplement of paper PMC10307832.

How the values were obtained:
Experiment in all cases: relative viability (nuclei count vs DMSO), 5 days (fraction); higher = more cells survive
[1] = compound: CC1CC(=O)N(C2=CN=C(N=C2N1C3CCCC3)NC4=C(C=C(C=C4)C(=O)NC5CCN(CC5)C)OC)C [NPK76-II-72-1] + C[C@]1(O)C[C@@H](c2nc(-c3ccc4ccc(-c5ccccc5)nc4c3)c3c(N)nccn32)C1 [Linsitinib] (partner 1 µM)
Outline: (§1)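 Five library-drug doses in √10 steps were combined with a fixed anchor-drug dose, or a single drug was given alone, by pin tool to lung cancer cell lines in 1536-well plates the day after seeding. Nuclei were stained and counted after 5 days. Relative viability is the nuclei count in treated wells over that in vehicle wells, taken as the median of duplicate plates.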

BI-2536 + Crizotinib = compound: CC[C@@H]1C(=O)N(C)c2cnc(Nc3ccc(C(=O)NC4CCN(C)CC4)cc3OC)nc2N1C1CCCC1 [BI-2536] + C[C@@H](Oc1cc(-c2cnn(C3CCNCC3)c2)cnc1N)c1c(Cl)ccc(F)c1Cl [Crizotinib] (partner 1 µM)
Outline: as §1

BI-2536 + Pemetrexed = compound: CC[C@@H]1C(=O)N(C)c2cnc(Nc3ccc(C(=O)NC4CCN(C)CC4)cc3OC)nc2N1C1CCCC1 [BI-2536] + Nc1nc2[nH]cc(CCc3ccc(C(=O)N[C@@H](CCC(=O)O)C(=O)O)cc3)c2c(=O)[nH]1 [Pemetrexed] (partner 0.2 µM)
Outline: as §1

BI-2536 + Olaparib = compound: CC[C@@H]1C(=O)N(C)c2cnc(Nc3ccc(C(=O)NC4CCN(C)CC4)cc3OC)nc2N1C1CCCC1 [BI-2536] + O=C(c1cc(Cc2n[nH]c(=O)c3ccccc23)ccc1F)N1CCN(C(=O)C2CC2)CC1 [Olaparib] (partner 8 µM)
Outline: as §1

## HCC-366
[1]; first compound 0.01 µM
  relative viability: 0.54
[1]; first compound 0.03162 µM
  relative viability: 0.688
[1]; first compound 0.1 µM
  relative viability: 0.704
[1]; first compound 0.3162 µM
  relative viability: 0.707
[1]; first compound 1 µM
  relative viability: 0.777
BI-2536 + Crizotinib; first compound 0.01 µM
  relative viability: 0.528
BI-2536 + Crizotinib; first compound 0.03162 µM
  relative viability: 0.49
BI-2536 + Crizotinib; first compound 0.1 µM
  relative viability: 0.369
BI-2536 + Crizotinib; first compound 0.3162 µM
  relative viability: 0.0121
BI-2536 + Crizotinib; first compound 1 µM
  relative viability: 0.0124
BI-2536 + Pemetrexed; first compound 0.01 µM
  relative viability: 0.193
BI-2536 + Pemetrexed; first compound 0.03162 µM
  relative viability: 0.17
BI-2536 + Pemetrexed; first compound 0.1 µM
  relative viability: 0.157
BI-2536 + Pemetrexed; first compound 0.3162 µM
  relative viability: 0.024
BI-2536 + Pemetrexed; first compound 1 µM
  relative viability: 0.0288
BI-2536 + Olaparib; first compound 0.01 µM
  relative viability: 0.323
BI-2536 + Olaparib; first compound 0.03162 µM
  relative viability: 0.368
BI-2536 + Olaparib; first compound 0.1 µM
  relative viability: 0.21
BI-2536 + Olaparib; first compound 0.3162 µM
  relative viability: 0.0235
BI-2536 + Olaparib; first compound 1 µM
  relative viability: 0.0223

## BEN
[1]; first compound 0.01 µM
  relative viability: 0.946
[1]; first compound 0.03162 µM
  relative viability: 1.01
[1]; first compound 0.1 µM
  relative viability: 0.87
[1]; first compound 0.3162 µM
  relative viability: 0.881
[1]; first compound 1 µM
  relative viability: 0.879
BI-2536 + Crizotinib; first compound 0.01 µM
  relative viability: 0.849
BI-2536 + Crizotinib; first compound 0.03162 µM
  relative viability: 0.6
BI-2536 + Crizotinib; first compound 0.1 µM
  relative viability: 0.556
BI-2536 + Crizotinib; first compound 0.3162 µM
  relative viability: 0.243
BI-2536 + Crizotinib; first compound 1 µM
  relative viability: 0.216
BI-2536 + Pemetrexed; first compound 0.01 µM
  relative viability: 0.676
BI-2536 + Pemetrexed; first compound 0.03162 µM
  relative viability: 0.83
BI-2536 + Pemetrexed; first compound 0.1 µM
  relative viability: 0.447
BI-2536 + Pemetrexed; first compound 0.3162 µM
  relative viability: 0.325
BI-2536 + Pemetrexed; first compound 1 µM
  relative viability: 0.422
BI-2536 + Olaparib; first compound 0.01 µM
  relative viability: 1.09
BI-2536 + Olaparib; first compound 0.03162 µM
  relative viability: 0.984
BI-2536 + Olaparib; first compound 0.1 µM
  relative viability: 0.779
BI-2536 + Olaparib; first compound 0.3162 µM
  relative viability: 0.382
BI-2536 + Olaparib; first compound 1 µM
  relative viability: 0.364

## NCI-H23
[1]; first compound 0.01 µM
  relative viability: 0.546
[1]; first compound 0.03162 µM
  relative viability: 0.701
[1]; first compound 0.3162 µM
  relative viability: 0.592
[1]; first compound 1 µM
  relative viability: 0.552
BI-2536 + Crizotinib; first compound 0.01 µM
  relative viability: 0.622
BI-2536 + Crizotinib; first compound 0.03162 µM
  relative viability: 0.398
BI-2536 + Crizotinib; first compound 0.1 µM
  relative viability: 0.426
BI-2536 + Crizotinib; first compound 0.3162 µM
  relative viability: 0.146
BI-2536 + Crizotinib; first compound 1 µM
  relative viability: 0.141
BI-2536 + Pemetrexed; first compound 0.01 µM
  relative viability: 0.619
BI-2536 + Pemetrexed; first compound 0.03162 µM
  relative viability: 0.756
BI-2536 + Pemetrexed; first compound 0.1 µM
  relative viability: 0.201
BI-2536 + Pemetrexed; first compound 0.3162 µM
  relative viability: 0.128
BI-2536 + Pemetrexed; first compound 1 µM
  relative viability: 0.182
BI-2536 + Olaparib; first compound 0.01 µM
  relative viability: 0.307
BI-2536 + Olaparib; first compound 0.03162 µM
  relative viability: 0.318
BI-2536 + Olaparib; first compound 0.1 µM
  relative viability: 0.212
BI-2536 + Olaparib; first compound 0.3162 µM
  relative viability: 0.117
BI-2536 + Olaparib; first compound 1 µM
  relative viability: 0.104

## 201T
[1]; first compound 0.01 µM
  relative viability: 1.01
[1]; first compound 0.03162 µM
  relative viability: 0.969
[1]; first compound 0.1 µM
  relative viability: 1.06
[1]; first compound 0.3162 µM
  relative viability: 1.06
[1]; first compound 1 µM
  relative viability: 1.09
BI-2536 + Crizotinib; first compound 0.01 µM
  relative viability: 1.02
BI-2536 + Crizotinib; first compound 0.03162 µM
  relative viability: 1.03
BI-2536 + Crizotinib; first compound 0.1 µM
  relative viability: 1
BI-2536 + Crizotinib; first compound 0.3162 µM
  relative viability: 0.66
BI-2536 + Crizotinib; first compound 1 µM
  relative viability: 0.358
BI-2536 + Pemetrexed; first compound 0.01 µM
  relative viability: 0.362
BI-2536 + Pemetrexed; first compound 0.03162 µM
  relative viability: 0.302
BI-2536 + Pemetrexed; first compound 0.1 µM
  relative viability: 0.298
BI-2536 + Pemetrexed; first compound 0.3162 µM
  relative viability: 0.208
BI-2536 + Pemetrexed; first compound 1 µM
  relative viability: 0.224
BI-2536 + Olaparib; first compound 0.01 µM
  relative viability: 0.879
BI-2536 + Olaparib; first compound 0.03162 µM
  relative viability: 0.796
BI-2536 + Olaparib; first compound 0.1 µM
  relative viability: 0.853
BI-2536 + Olaparib; first compound 0.3162 µM
  relative viability: 0.382
BI-2536 + Olaparib; first compound 1 µM
  relative viability: 0.205

## NCI-H460
[1]; first compound 0.01 µM
  relative viability: 0.721
[1]; first compound 0.03162 µM
  relative viability: 0.787
[1]; first compound 0.1 µM
  relative viability: 0.842
[1]; first compound 0.3162 µM
  relative viability: 0.762
[1]; first compound 1 µM
  relative viability: 0.895
BI-2536 + Crizotinib; first compound 0.01 µM
  relative viability: 0.966
BI-2536 + Crizotinib; first compound 0.03162 µM
  relative viability: 0.842
BI-2536 + Crizotinib; first compound 0.1 µM
  relative viability: 0.0283
BI-2536 + Crizotinib; first compound 0.3162 µM
  relative viability: 0.0109
BI-2536 + Crizotinib; first compound 1 µM
  relative viability: 0.0112
BI-2536 + Pemetrexed; first compound 0.01 µM
  relative viability: 0.0637
BI-2536 + Pemetrexed; first compound 0.03162 µM
  relative viability: 0.0517
BI-2536 + Pemetrexed; first compound 0.1 µM
  relative viability: 0.0606
BI-2536 + Pemetrexed; first compound 0.3162 µM
  relative viability: 0.0204
BI-2536 + Pemetrexed; first compound 1 µM
  relative viability: 0.0163
BI-2536 + Olaparib; first compound 0.01 µM
  relative viability: 0.488
BI-2536 + Olaparib; first compound 0.03162 µM
  relative viability: 0.421
BI-2536 + Olaparib; first compound 0.1 µM
  relative viability: 0.268
BI-2536 + Olaparib; first compound 0.3162 µM
  relative viability: 0.0394
BI-2536 + Olaparib; first compound 1 µM
  relative viability: 0.0262
